Test results taken from patent US8686115B2, “Compositions and methods for quantitatively monitoring lipids” (The Board of Trustees of the University of Illinois, priority 2009, dated 2014).
Changes are numbered by the printed parent chain.

Experiments:
[1] = target: T1, DAN-eENTH: epsin 1 ENTH domain variant M10C/C96A/S4W, SEQ ID NO: 2, labeled with DAN at C10 (Homo sapiens, UniProt Q9Y6I3, C96A/M10C/S4W); assay: SPR equilibrium binding of DAN-eENTH to phosphoinositide-containing LUVs
T1 construct: The Epsin1 ENTH domain (1-158 amino acids) was subcloned; GST (C, cleaved yes); made in house; host or cells: E. coli BL21 RIL codon plus
T1 sequence (Q9Y6I3 1-158 S4W/M10C/C96A): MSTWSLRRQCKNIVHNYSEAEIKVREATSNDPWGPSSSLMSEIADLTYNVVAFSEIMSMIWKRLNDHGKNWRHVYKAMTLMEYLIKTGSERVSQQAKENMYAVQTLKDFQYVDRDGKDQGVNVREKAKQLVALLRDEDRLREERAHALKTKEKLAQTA
Excerpt: Provided herein is an ENTH domain of epsin1, which is linked to 2-dimethylamino-6-acyl-naphthalene (DAN). The ENTH domain contains 3 mutations, which are substitutions: M10C, C96A, and S4W. See SEQ ID NO:2. This DAN-eENTH (M10C, C96A, S4W) is an exceptional, high-affinity phosphatidylinositol-4,5-bisphosphate (PtdIns(4,5)P2)-binding protein.
The ENTH domain was engineered to introduce a single labeling site (M10C) on the membrane binding surface while removing an endogenous Cys (C96A). We also performed the S4W mutation to suppress its residual affinity for another lipid, phosphatidylinositol-3,4,5-trisphosphate (PtdIns(3,4,5)P3) (PtdIns(4,5)P2/PtdIns(3,4,5)P3=4 for wild type and >10 for the mutant) and to enhance the overall affinity for PtdIns(4,5)P2-containing membranes (ca. 4-fold) (Table 1).
With respect to FIG. 1, an L1 sensor chip was coated with POPC/POPS/PtdIns(4,5)P2 (77:20:3) LUVs. The proteins were incubated with a given concentration of IP3 for 5 minutes before injecting into the SPR instrument. Kinetic SPR measurements were performed in 20 mM Tris-HCL, pH 7.4, containing 0.16 KCl. […] A lower concentration of DAN-eENTH was used than that of PLCδ PH because the former has much higher affinity that the latter.
All mutations (S4W, M10C, and C96A) were performed by polymerase chain reaction mutagenesis and verified by DNA sequencing. eENTH may comprise the following sequence:
E. coli BL21 RIL codon plus (Stratagene) cells were used for protein expression. Cells were grown in Luria broth media containing 100 μg/ml of ampicillin at 37° C. 0.1 mM of Isopropyl β-D-1-thiogalactopyranoside was added to induce over-expression of recombinant proteins when the OD600 reached 0.5-0.8 and cells were grown for additional 6 to 10 hours at 25° C. Cells were harvested by centrifugation and cell pellets were resuspended in 50 mM Tris-HCl buffer (pH 7.4) containing 160 mM KCl, 1 mM phenylmethanesulphonylfluoride, and 5 mM of dithiothreitol (DTT). Cells were lysed by sonication and the lysate was collected by centrifugation at 4° C. The GST-affinity resin (GenScript) for GST-tagged proteins or nickel-nitrilotriacetic acid resin (Qiagen, Valencia, Calif.) for His6-tagged proteins was added into the cell lysate and the mixture was gently shaken for 30 minutes at 4° C. The mixture was applied to a column and the column was washed once with 50 mM Tris-HCl buffer (pH 7.4) containing 160 mM KCl and 5 mM of DTT to reduce thiol group, and washed several times with the same buffer without DTT to remove DTT. For DAN labeling, 100 μg of acrylodan was added to the column at this stage and incubated 16 hours at 4° C. The excess acrylodan was removed by washing the column with the buffer several times. Thrombin (Invitrogen) was added to column to remove the GST tag and the mixture was incubated at 4° C. for 10 hours. The labeled protein was eluted from the column by and the collected fractions were applied to ion exchange column. Purity and the concentration of the recombinant proteins were determined by sodium dodecylsulfate-polyacrylamide gel electrophoresis and bicinchoninic acid assay, respectively. The DAN labeling yield of eENTH, which was calculated as the molar ratio of DAN (determined spectrophotometrically at 391 nm using its extinction coefficient of 20,000 cm^−1 M^−1) to protein, was typically 60-70%.
LUVs were prepared by extrusion using a 100 nm-pore membrane. GUVs were prepared by electroformation. […]

[2] = target: T2, DAN-eENTH (epsin 1 ENTH domain variant M10C/C96A/S4W, SEQ ID NO: 2, DAN labeled) mutant L6A/R7A/R8A (Homo sapiens, UniProt Q9Y6I3, C96A/L6A/M10C/R7A/R8A/S4W); assay: SPR binding of DAN-eENTH-L6A/R7A/R8A to phosphoinositide-containing LUVs; settings: see Table 1
T2 construct: The Epsin1 ENTH domain (1-158 amino acids) was subcloned; GST (C, cleaved yes); made in house; host or cells: E. coli BL21 RIL codon plus
T2 sequence (Q9Y6I3 with tags, fused parts or gaps C96A): T1 sequence (Q9Y6I3 1-158 S4W/M10C/C96A) with L6A, R7A, R8A

CCCCCCCCCCCCCCCC(=O)OC[C@H](COP(=O)(O)O[C@@H]1[C@H](O)[C@H](O)[C@@H](OP(=O)(O)O)[C@H](OP(=O)(O)O)[C@H]1O)OC(=O)CCCCCCCCCCCCCCC [PtdIns(4,5)P2, phosphatidylinositol-4,5-bisphosphate]
Kd ([1]; SPR, POPC/POPS/PtdIns(4,5)P2 (77:20:3) LUVs, 20 mM Tris-HCl pH 7.4, 0.16 M KCl, read-out: Kd for PtdIns(4,5)P2): 4 nM | affinity for PtdIns(4,5)P2-containing vesicles relative to eENTH ([1]; higher than eENTH): about 3 fold | affinity for PtdIns(4,5)P2-containing vesicles relative to wild type ([1]; higher than the wild type): 12 fold | PtdIns(4,5)P2 affinity [2]: devoid of PtdIns(4,5)P2 affinity
